Data taken from patent US8247211B2, “Glycopeptide antibiotics” (American Cyanamid Company, priority 2001, dated 2012).

How the values were obtained:
Test in all cases: In vitro antibacterial evaluation: minimum inhibitory concentration (MIC), broth dilution method
Format in all cases: cell-based
Enterococcus sp. = system: Enterococcus sp.
Method in brief: (§1)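 Following NCCLS approved standard M7-A2, compounds are serially diluted from 64 to 0.06 μg/mL in Muller-Hinton II […] and inoculated at 5×10^5 CFU/mL; the MIC is the minimum concentration at which growth is inhibited.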

Escherichia coli = conditions: strain GC 4560
Method in brief: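 Test strains, among them recent clinical isolates carrying methicillin, penicillin and/or vancomycin resistance, were inoculated at 5×10^5 CFU/mL. A broth dilution series spanning 64-0.06 μg/mL in Muller-Hinton II […] (NCCLS M7-A2) defined the MIC as the lowest growth-inhibiting concentration.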

Staphylococcus sp. = conditions: broth dilution, 18 hours at 35° C.
Method in brief: as §1

Streptococcus sp. = system: Streptococcus sp.
Method in brief: as §1

[1] = broth dilution, inoculum 5×10^5 CFU/mL, 18 hours at 35° C.

CCOc1cc(C2OCC3OC(OC4C(CO)OC(Oc5ccc(CC6NC(=O)C(C(C)c7ccccc7)NC(=O)CNC(=O)C(CO)NC(=O)C(C(O)C7CNC(=N)N7C7OC(CO)C(O)C(O)C7O)NC(=O)C(C(O)C7CNC(=N)N7)NC6=O)cc5)C(O)C4O)C(O)C(O)C3O2)ccc1[N+](=O)[O-] (stereo not drawn) [Example 167, Cyclo[glycyl-β-methylphenylalanyl-O-[4-O-[4,6-O-(3-ethoxy-4-nitrobenzylidene)hexopyranosyl]hexopyranosyl]tyrosyl-3-(2-iminoimidazolidin-4-yl)seryl-3-(3-hexopyranosyl-2-iminoimidazolidin-4-yl)serylseryl]]
1 µg/mL: MIC Streptococcus pneumoniae (ATCC 6301) (Streptococcus sp.; [1]) | MIC Streptococcus pneumoniae (GC 4565) (Streptococcus sp.; [1]) | MIC Streptococcus pyogenes (GC 4563) (Streptococcus sp.; [1]) | MIC Streptococcus pneumoniae (ATCC 6301) (Streptococcus sp.; strain ATCC 6301) | MIC Streptococcus pyogenes (GC 4563) (Streptococcus sp.; strain GC 4563) | MIC Streptococcus pneumoniae (GC 4565) (Streptococcus sp.; strain GC 4565)
0.25 µg/mL: MIC Streptococcus pneumoniae (GC 1894) (Streptococcus sp.; [1]) | MIC Streptococcus pneumoniae (GC 1894) (Streptococcus sp.; strain GC 1894)
16 µg/mL: MIC Coagulase Negative Staphylococcus (GC 4551) (Staphylococcus sp.; 5×10^5 CFU/mL) | MIC Staphylococcus aureus (ATCC 29213) (Staphylococcus sp.; 5×10^5 CFU/mL) | MIC Staphylococcus aureus (GC 1131) (Staphylococcus sp.; 5×10^5 CFU/mL) | MIC Staphylococcus aureus (GC 3051) (Staphylococcus sp.; 5×10^5 CFU/mL) | MIC Staphylococcus aureus (GC 3053) (Staphylococcus sp.; 5×10^5 CFU/mL) | MIC Staphylococcus aureus (GC 4542) (Staphylococcus sp.; 5×10^5 CFU/mL) | MIC Staphylococcus aureus (GC 4544) (Staphylococcus sp.; 5×10^5 CFU/mL) | MIC Staphylococcus aureus (GC 4545) (Staphylococcus sp.; 5×10^5 CFU/mL) | MIC Staphylococcus aureus-SMITH (GC 4543) (Staphylococcus sp.; 5×10^5 CFU/mL) | MIC Staphylococcus haemolyticus (GC 4546) (Staphylococcus sp.; 5×10^5 CFU/mL) | MIC Staphylococcus aureus (ATCC 29213) (Staphylococcus sp.; strain ATCC 29213) | MIC Staphylococcus aureus (GC 1131) (Staphylococcus sp.; strain GC 1131) | MIC Staphylococcus aureus (GC 3051) (Staphylococcus sp.; strain GC 3051) | MIC Staphylococcus aureus (GC 3053) (Staphylococcus sp.; strain GC 3053) | MIC Staphylococcus aureus (GC 4542) (Staphylococcus sp.; strain GC 4542) | MIC Staphylococcus aureus-SMITH (GC 4543) (Staphylococcus sp.; strain GC 4543) | MIC Staphylococcus aureus (GC 4544) (Staphylococcus sp.; strain GC 4544) | MIC Staphylococcus aureus (GC 4545) (Staphylococcus sp.; strain GC 4545) | MIC Staphylococcus haemolyticus (GC 4546) (Staphylococcus sp.; strain GC 4546) | MIC Coagulase Negative Staphylococcus (GC 4551) (Staphylococcus sp.; strain GC 4551)
2 µg/mL: MIC Streptococcus agalactiae (GC 4564) (Streptococcus sp.; [1]) | MIC Streptococcus agalactiae (GC 4564) (Streptococcus sp.; strain GC 4564)
32 µg/mL: MIC Enterococcus avium (GC 4558) (Enterococcus sp.; [1]) | MIC Enterococcus faecalis (ATCC 29212) (Enterococcus sp.; [1]) | MIC Enterococcus faecalis (GC 2242) (Enterococcus sp.; [1]) | MIC Enterococcus faecalis (GC 2691) (Enterococcus sp.; [1]) | MIC Enterococcus faecalis (GC 3059) (Enterococcus sp.; [1]) | MIC Enterococcus faecalis (GC 4552) (Enterococcus sp.; [1]) | MIC Enterococcus faecalis (GC 4553) (Enterococcus sp.; [1]) | MIC Enterococcus faecalis (GC 4554) (Enterococcus sp.; [1]) | MIC Enterococcus faecalis (GC 6189) (Enterococcus sp.; [1]) | MIC Enterococcus faecium (GC 2243) (Enterococcus sp.; [1]) | MIC Enterococcus faecium (GC 4556) (Enterococcus sp.; [1]) | MIC Enterococcus faecalis (ATCC 29212) (Enterococcus sp.; strain ATCC 29212) | MIC Enterococcus faecalis (GC 2242) (Enterococcus sp.; strain GC 2242) | MIC Enterococcus faecium (GC 2243) (Enterococcus sp.; strain GC 2243) | MIC Enterococcus faecalis (GC 2691) (Enterococcus sp.; strain GC 2691) | MIC Enterococcus faecalis (GC 3059) (Enterococcus sp.; strain GC 3059) | MIC Enterococcus faecalis (GC 4552) (Enterococcus sp.; strain GC 4552) | MIC Enterococcus faecalis (GC 4553) (Enterococcus sp.; strain GC 4553) | MIC Enterococcus faecalis (GC 4554) (Enterococcus sp.; strain GC 4554) | MIC Enterococcus faecium (GC 4556) (Enterococcus sp.; strain GC 4556) | MIC Enterococcus avium (GC 4558) (Enterococcus sp.; strain GC 4558) | MIC Enterococcus faecalis (GC 6189) (Enterococcus sp.; strain GC 6189)
8 µg/mL: MIC Enterococcus faecium (GC 4557) (Enterococcus sp.; [1]) | MIC Enterococcus faecium (GC 4557) (Enterococcus sp.; strain GC 4557) | MIC Escherichi coli (GC 4560) (Escherichia coli) | MIC Coagulase Negative Staphylococcus (GC 4547) (Staphylococcus sp.; 5×10^5 CFU/mL) | MIC Coagulase Negative Staphylococcus (GC 4548) (Staphylococcus sp.; 5×10^5 CFU/mL) | MIC Coagulase Negative Staphylococcus (GC 4549) (Staphylococcus sp.; 5×10^5 CFU/mL) | MIC Coagulase Negative Staphylococcus (GC 6257) (Staphylococcus sp.; 5×10^5 CFU/mL) | MIC Staphylococcus aureus (GC 4541) (Staphylococcus sp.; 5×10^5 CFU/mL) | MIC Staphylococcus aureus (GC 4541) (Staphylococcus sp.; strain GC 4541) | MIC Coagulase Negative Staphylococcus (GC 4547) (Staphylococcus sp.; strain GC 4547) | MIC Coagulase Negative Staphylococcus (GC 4548) (Staphylococcus sp.; strain GC 4548) | MIC Coagulase Negative Staphylococcus (GC 4549) (Staphylococcus sp.; strain GC 4549) | MIC Coagulase Negative Staphylococcus (GC 6257) (Staphylococcus sp.; strain GC 6257)
